We go through 1 compound from US11993598B2, “Compounds for inhibiting EGFR kinase, preparation methods and uses thereof” (WIGEN BIOMEDICINE TECHNOLOGY (SHANGHAI) CO., LTD., priority 2019, dated 2024).

For one series, the target named is HER4 (Homo sapiens, UniProt Q15303). In words: HER4 biochemical activity assay (HTRF). As for the experimental part:
Assay 1: Wild-type EGFR, HER2 and HER4, and mutant EGFR biochemical activity assay
10 nL of Serially diluted compounds were transferred to assay plates using the labcyte Echo 550, and 5 uL of 2× enzymes in assay buffer were subsequently dispensed. The assay plate was covered with an adhesive plate seal, and briefly spinned for 30 s at 1000 g. 5 uL of 2× TK-substrate-biotin and ATP mixed in assay buffer were added.
IC50 was calculated and analyzed using a 4 parametric logistic model.
A general note: In TR-FRET formats the signal depends on donor and acceptor labels being close together.

In the next series the test system is LU-01-0493. Description: Patient derived xenograft (PDX) mouse model. In kind it is in vivo, nude mice. As for the experimental part: (§1) Assay 3. In vivo studies in cell line-derived (CDX) and patient derived xenografts (PDX) mouse models
(§2) Cells (H1975) or tissue pieces (LU0493 and LU0426) were implanted subcutaneously into the left armpit of nude mice. When the average tumor volume reached 100-150 mm^3, mice were randomized by tumor volume and treated with vehicle, compound 1 or poziotinib respectively. Tumor volume and body weight were measured twice per week. Mice were sacrificed on day 21 or day 28, and tumor volume and terminal body weight were recorded. The relative tumor volume, percent of treatment/control values and tumor growth inhibition were calculated and statistics was performed.
(§3) Terminal body weight changes were calculated as percentage of body changes from day 1 to day 21.

Another series relates to LU-01-0426. Description: Patient derived xenograft (PDX) mouse model. In kind it is in vivo, nude mice. As for the experimental part:
as §1, §2, §3
A general note: Xenograft models place foreign cells or tissue in a host animal.

Chain of HER4 (Q15303 26-1308): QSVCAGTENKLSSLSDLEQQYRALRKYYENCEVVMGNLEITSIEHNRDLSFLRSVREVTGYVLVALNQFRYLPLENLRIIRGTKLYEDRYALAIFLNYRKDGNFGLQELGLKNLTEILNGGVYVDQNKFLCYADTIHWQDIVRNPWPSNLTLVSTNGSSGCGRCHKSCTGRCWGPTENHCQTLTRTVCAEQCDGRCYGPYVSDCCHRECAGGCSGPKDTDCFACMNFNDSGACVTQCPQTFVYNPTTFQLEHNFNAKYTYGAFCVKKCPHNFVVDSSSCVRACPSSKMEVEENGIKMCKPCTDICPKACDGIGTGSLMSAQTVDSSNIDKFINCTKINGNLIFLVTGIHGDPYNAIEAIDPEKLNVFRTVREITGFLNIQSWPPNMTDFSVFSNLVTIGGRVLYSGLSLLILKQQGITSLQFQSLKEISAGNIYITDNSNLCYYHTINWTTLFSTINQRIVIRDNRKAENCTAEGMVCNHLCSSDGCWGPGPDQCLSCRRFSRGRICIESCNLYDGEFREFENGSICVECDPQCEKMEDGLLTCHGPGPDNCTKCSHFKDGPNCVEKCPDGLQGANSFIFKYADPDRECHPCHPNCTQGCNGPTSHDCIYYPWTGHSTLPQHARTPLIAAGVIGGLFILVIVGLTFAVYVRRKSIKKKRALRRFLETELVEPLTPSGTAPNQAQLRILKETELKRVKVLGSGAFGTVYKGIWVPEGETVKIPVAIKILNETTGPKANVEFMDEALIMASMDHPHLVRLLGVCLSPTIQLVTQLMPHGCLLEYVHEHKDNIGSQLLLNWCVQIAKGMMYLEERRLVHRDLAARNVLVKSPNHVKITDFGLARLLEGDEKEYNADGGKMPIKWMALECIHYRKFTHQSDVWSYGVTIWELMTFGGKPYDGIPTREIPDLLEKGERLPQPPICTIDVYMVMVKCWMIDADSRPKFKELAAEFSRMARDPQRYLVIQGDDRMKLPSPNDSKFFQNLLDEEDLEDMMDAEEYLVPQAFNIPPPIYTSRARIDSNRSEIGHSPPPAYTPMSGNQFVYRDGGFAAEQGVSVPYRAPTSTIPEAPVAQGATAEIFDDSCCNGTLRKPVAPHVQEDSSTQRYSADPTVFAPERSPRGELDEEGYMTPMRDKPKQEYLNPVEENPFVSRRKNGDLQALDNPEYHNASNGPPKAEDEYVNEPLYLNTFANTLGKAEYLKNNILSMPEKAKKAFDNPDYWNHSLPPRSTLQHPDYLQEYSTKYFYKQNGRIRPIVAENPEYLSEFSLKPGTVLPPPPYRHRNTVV

The IC50 is the concentration that inhibits the measured activity by half. A lower IC50 goes with greater potency. With `C=CC(=O)Nc1cc(Nc2nccc(-n3c(=O)n4c5c(cc(F)cc53)CCC4)n2)c(OC)cc1N(C)CCN(C)C` [Compound 1, N-(2-((2-(dimethylamino)ethyl)(methyl)amino)-5-((4-(8-fluoro-2-oxo-5,6-dihydro-4H-imidazo[4,5,1-ij]quinolin-1(2H)-yl)pyrimidin-2-yl)amino)-4-methoxyphenyl)acrylamide], the concentration for half-maximal inhibition (IC50) against HER4 amounted to 0.769 nM. Also, the “TGI (%)” value stood at 55.4% with LU-01-0493 (LU-01-0493, 15 mg/kg compound 1); 72.3% in the series on LU-01-0493 (LU-01-0493, 30 mg/kg compound 1); 88.9% in the series on LU-01-0493 (LU-01-0493, 60 mg/kg compound 1); 47% with LU-01-0426 (LU-01-0426, 15 mg/kg compound 1); 84% in the series with LU-01-0426 (LU-01-0426, 30 mg/kg compound 1); 106.3% in the series with LU-01-0426 (LU-01-0426, 60 mg/kg compound 1). In addition, the “Terminal body weight changes (%)” value in the series with LU-01-0493 (LU-01-0493, 15 mg/kg compound 1, day 1 to day 21) was 3.2%; in the series with LU-01-0493 (LU-01-0493, 30 mg/kg compound 1, day 1 to day 21), −6.1%; in the series on LU-01-0493 (LU-01-0493, 60 mg/kg compound 1, day 1 to day 21) it was −6.5%; with LU-01-0426 (LU-01-0426, 15 mg/kg compound 1, day 1 to day 21) it was 5.7%; with LU-01-0426 (LU-01-0426, 30 mg/kg compound 1, day 1 to day 21) it was 1.8%; with LU-01-0426 (LU-01-0426, 60 mg/kg compound 1, day 1 to day 21) it was −2%.
